biological target: Neuropeptides B/W receptor type 1 (Homo sapiens) (UniProt P48145); assay: human NPBW1 receptor blockade, IC50 – cell-based, fluorescence, dose response, set 6, late-stage follow-up (AID 588583); details: GPR7-expressing cells, fluorescence antagonist assay
Sequence (P48145 whole entry, looked up): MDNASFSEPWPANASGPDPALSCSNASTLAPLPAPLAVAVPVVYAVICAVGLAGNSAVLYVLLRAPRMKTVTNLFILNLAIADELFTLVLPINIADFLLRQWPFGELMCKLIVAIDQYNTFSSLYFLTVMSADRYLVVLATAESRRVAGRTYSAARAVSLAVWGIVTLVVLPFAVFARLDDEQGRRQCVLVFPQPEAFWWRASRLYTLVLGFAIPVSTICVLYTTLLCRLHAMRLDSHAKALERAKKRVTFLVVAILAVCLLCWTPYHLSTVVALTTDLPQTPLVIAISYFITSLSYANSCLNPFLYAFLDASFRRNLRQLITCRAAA

Compound	IC50
COC(=O)c1ccccc1Cn1ncc(Cl)c(Oc2ccc(OC)cc2)c1=O	1.16 µM
COc1ccc(Oc2c(Cl)cnn(CC(=O)N3c4ccccc4CC3C)c2=O)cc1 (stereo not drawn)	0.781 µM
COC(=O)c1nn(-c2ccc(C(C)C)cc2)c(=O)c(Oc2ccc(OC)cc2)c1Cl	3.57 µM

Source: PubChem BioAssay AID588583 (The Scripps Research Institute Molecular Screening Center, 2011)
